Test results as given in patent US20130028955A1, “SUSTAINED RELEASE ORAL MATRIX AND METHODS OF MAKING THEREOF” (priority 2011, published 2013).
Counter-ions that a name gives are not always drawn.

Assay: Dissolution, USP basket apparatus 1, simulated intestinal fluid pH 6.8
Type: physicochemical
Settings: for drug release 0.5 h / drug release 1 h / drug release 2 h / drug release 4 h / drug release 8 h / drug release 12 h / drug release 24 h: Table 7, Example VII combination tablet; for drug release 0 h: Table 7, Example VII tablet: 20% silicone PSA, 8.7% tramadol HCl, 71.7% acetaminophen
Method: The release rate of these formulations were carried out using USP dissolution basket apparatus 1 (Vankel, Inc) using about 100 rpm stirring speed at about 37 C in about 900 ml of the dissolution medium. The dissolution medium used was simulated intestinal fluid with a pH of about 6.8. At predetermined time intervals, 1 ml of sample was withdrawn and was analyzed to determine acetaminophen concentration. Concentration of acetaminophen in the dissolution medium was determined using a HPLC method. A C8 column was used using mobile phase of 65% methanol and 35% water. Flow rate was 1 ml/min and the UV detection wavelength was 254 nm. The results are reported as average of six tablets. […] Total weight of each tablet was 500 mg. The diameters of the tablets were 13 mm.

Row | Structure (SMILES) | drug release 0.5 h | drug release 1 h | drug release 2 h | drug release 4 h | drug release 8 h | drug release 12 h | drug release 24 h | drug release 0 h
1 | CC(=O)Nc1ccc(O)cc1 [APAP, acetaminophen] | 13.5 | 22.6 | 31.9 | 44.8 | 61.1 | 74.3 | 86.0 | 0.0
2 | COc1cccc(C2(O)CCCCC2CN(C)C)c1 (stereo not shown) [Tramadol HCl, Tramadol hydrochloride] | 15.8 | 23.2 | 32.1 | 43.4 | 56.8 | 68.3 | 89.4 | 0.0
